Legend:
[1] = tested on: skin of hind limb toes of mice; test: Kinase inhibitor-induced mouse models with hand-foot skin reaction (Example 24); format: in vivo, ICR mice; conditions: for degree of swelling of hind limb toes / epidermal layer and stratum corneum in skin tissues of hind limb toes (pathological staining): modeling drug oral for 14 days; for skin appearance of hind limb toes: modeling for 14 days, sorafenib 100 mg/kg or osimertinib 10 mg/kg oral; for expression level of cytokine IL-1β in skin tissues of hind limb toes / thickening of the epidermal layer and the stratum corneum in the skin tissues (pathological staining) / swelling of the toes caused by the modeling drugs: compound 2b 3% ointment topical or nicotinamide 100 mg/kg oral; for thickening of the epidermal layer and the stratum corneum in the skin tissues (pathological staining) / swelling of the toes caused by the modeling drugs: sorafenib or osimertinib model; for swelling of the toes caused by the modeling drugs: once daily 16 days
From the text: After adaptive feeding for 7 days, SPF-grade ICR mice (male, 5-6 weeks old, with a body weight of approximately 35 g) were randomly divided into groups, including a blank control group (6 mice), a sorafenib modeling group (6 mice), an osimertinib modeling group (6 mice), a sorafenib+compound 2b group (6 mice), an osimertinib+compound 2b group (6 mice), a sorafenib+nicotinamide group (6 mice), and an osimertinib+nicotinamide group (6 mice). The groups were respectively administered corresponding modeling drugs by oral gavage (sorafenib at 100 mg/kg and osimertinib at 10 mg/kg) once daily, and the blank control group was administered an equivalent volume of normal saline. After administration with the chemotherapeutic drugs for 2 weeks, the compound ointments (at a compound content of 3%) used in Example 22 were respectively applied topically in the groups or nicotinamide was orally administered (100 mg/kg) once daily continuously for 16 days.
Measurement of the degree of swelling of toes: The degree of swelling of hind limb toes of the mice was measured using a toe swelling tester (KW-7C, Nanjing Calvin Biotechnology Co., Ltd.) before administration with the modeling drugs, after administration with the modeling drugs for 2 weeks, and before sacrifice, respectively. Before measurement, ankle joints of hind paws of the mice were marked at same positions before administration, after administration for 2 weeks, and before sacrifice. During measurement, water was properly located at the same level as the marked positions, and numerical values were recorded after becoming stable.
Pathological staining of skin tissues: Skin tissue samples were selected from hind limb toes of the mice and placed in 4% paraformaldehyde for fixation at room temperature for 4 hours. Then, the tissues were taken out and rinsed with running water for several hours. The samples were subjected to dehydration treatment with 70%, 80%, and 90% ethanol solutions, followed by treatment with a mixed solution of equal amounts of absolute alcohol and xylene for 15 minutes, and then permeabilized twice with a xylene solution for 15 minutes each time until the samples became transparent. The samples were placed in a mixture of half xylene and half paraffin for soaking for 15 minutes, and then, paraffin I and paraffin II were added for wax penetration for one hour, respectively. After embedding with paraffin, the samples were sectioned, baked, dewaxed, and hydrated. Then, the hydrated sections were placed in a hematoxylin solution (ZSGB-BIO, article No. 23041001) for staining for 3 minutes, and a differentiation solution of hydrochloric acid in ethanol was added for differentiation for 15 seconds. After rinsing with water, a Scott bluing solution (Servicebio, article No. 20230801) was added for bluing for 15 seconds. After rinsing with running water, the sections were stained with an eosin solution (Solarbio, article No. 33535) for 3 minutes, rinsed with running water, dehydrated, permeabilized, sealed, and inspected under a microscope.
Immunohistochemical staining: After baking, dewaxing, and hydration, paraffin sections of skin tissues of hind limb toes of the mice were subjected to antigen retrieval using a 0.2 M citric acid buffer solution (containing 1.534 g of citric acid, 3.1 g of sodium citrate, and 100 mL of distilled water, pH 4.7). Endogenous […] was removed using 3% hydrogen peroxide (Shandong Annjet High-Tech Disinfection Technology Co., Ltd., article No. 20290902), and the sections were incubated at room temperature for 10 minutes and then fully rinsed with a PBS buffer solution (containing 8 g of NaCl, 0.2 g of KCl, 1.44 g of Na2HPO4, and 1 M HCl, pH 7.4). The sections were permeabilized with 0.5% Triron-X-100 (AmyJet Scientific, article No. A-CSH436-100 mL), respectively permeabilized with mouse anti-IL-1β and rabbit IL-8 for 10 minutes, and not permeabilized with rabbit anti-IL-6. […]

THP-1 cells = test: m6A methylation level of THP-1 cells by LC-MS (Example 19); format: cell-based; conditions: 24 hours
Description: 1*10^8 THP-1 cells were seeded in culture dishes, into which 400 nM compound 1, 4 nM and 400 nM compounds 2b, 5a, and 8b, 4 nM and 4 μM nicotinamide, and 5 μM m6A methylase inhibitor UZH2 were added, respectively. The cells were cultured in an incubator containing 5% CO2 at 37° C. for 24 hours. After culture media were discarded, the cells were washed with PBS and centrifuged to discard the supernatant. 400 μL of an RLT cell lysis buffer was added, and the cells were stored at −80° C. A portion of samples were selected, into which 400 μL of 70% ethanol was added and evenly stirred. 700 μL of a sample was transferred to an RNeasy centrifugation column and centrifuged for 15 seconds (8,000 g, 25° C.). Then, 700 μL of an RW1 buffer solution was added and centrifuged for 15 seconds (8,000 g, 25° C.), followed by the addition of 500 μL of an RPE buffer solution and centrifugation for 16 seconds (8,000 g, 25° C.). The above steps were repeated twice, followed by centrifugation for 2 minutes to completely remove the eluent. 30 μL of nuclease-free water was added to a chromatographic column, and the cells were incubated for 5 minutes and then centrifuged for 2 minutes (12,000 g, 25° C.). The steps were repeated 3 times. 2 μL of an RNA sample was selected and dissolved in 98 μL of a 10 mM Tris buffer solution, and the absorbance at 260 nm was measured using a Nanodrop to determine the RNA concentration.
50 μg of total RNA was selected and dissolved in 100 μL of nuclease-free water. Oligo (dT) magnetic beads were resuspended, 50 μL of the magnetic beads were transferred to a 1.5 mL test tube, 500 μL of a binding buffer solution was added, the mixture was allowed to stand, and the supernatant was removed. 100 μL of an RNA sample was added to 200 μL of a magnetic bead suspension for mixing, the mixture was stirred and incubated in a Thermomixer at 25° C. for 5 minutes, the supernatant was discarded, and then 200 μL of a washing buffer solution was added. The steps were repeated 2 times, and then centrifugation was performed for 10 seconds (2,000 g, 25° C.). 50 μL of an elution buffer solution was added and evenly mixed, the mixture was heated to 75° C., the supernatant was transferred to a new 1.5 mL test tube and purified using an RNA Clean & Concentrator kit, and the RNA concentration was determined.
20 μL (approximately 200 ng) of an mRNA sample and 20 μL of a Nuclease P1 digestion premix (including 0.5 μL of 2 unit/μL Nuclease P1, 0.4 μL of 5 M NaCl, 2 μL of 0.1 M ZnCl2, and 17.1 μL of PCR-grade water) were added into each test tube, and the mixture was stirred and incubated in a Thermomixer at 37° C. for 2 hours. 2 μL of a 2 M NH4HCO3 solution and 1 unit of alkaline phosphatase were added, and the mixture was stirred and incubated in a Thermomixer at 37° C. for 2 hours. 1 μL of a 1.2 M HCl neutralization solution was added, and centrifugation was performed for 30 minutes (16,000 g, 4° C.). 20 μL of the supernatant was collected, an m6A methylation fragment was analyzed by LC-MS, and the m6A inhibition rate was calculated.
m6A inhibition rate (%)=(measured ion peak area−blank control)/(positive ion peak area−blank control)*100.

Compound | degree of swelling of hind limb toes [1] | epidermal layer and stratum corneum in skin tissues of hind limb toes (pathological staining) [1] | skin appearance of hind limb toes [1] | expression level of cytokine IL-1β in skin tissues of hind limb toes ([1]; osimertinib model) | expression level of cytokine IL-1β in skin tissues of hind limb toes ([1]; sorafenib model) | thickening of the epidermal layer and the stratum corneum in the skin tissues (pathological staining) [1] | swelling of the toes caused by the modeling drugs [1] | m6A methylation level of mRNA of the cells (THP-1 cells; 4 nM and 400 nM) | other results
CNC(=O)c1cc(Oc2ccc(NC(=O)Nc3ccc(Cl)c(C(F)(F)F)c3)cc2)ccn1 [Sorafenib, sorafenib, reference compound] | significant swelling | significantly thickened | obvious erythema and rhagades | – | – | – | – | – | cytokine IL-1β in skin tissues of hind limb toes (immunohistochemistry) ([1]; sorafenib oral for 14 days): significantly increased
NC(=O)c1cccnc1 [Nicotinamide, nicotinamide] | – | – | – | does not have a significant impact | does not have a significant impact | does not significantly alleviate | not observed that oral administration of the nicotinamide at 100 mg/kg significantly alleviates the swelling | – | m6A methylation level of mRNA of the cells (THP-1 cells; 4 nM and 4 μM): no inhibitory effect
CN1CC[C@H](C(N)=O)c2[nH]c3ccc(Cl)cc3c21 [Compound 8b, (S)-8-chloro-1-methyl-2,3,4,5-tetrahydropyrido[3,2-b]indole-4-carboxamide] | – | – | – | – | – | – | – | significantly inhibit | –
C=CC(=O)Nc1cc(Nc2nccc(-c3cn(C)c4ccccc34)n2)c(OC)cc1N(C)CCN(C)C [Osimertinib, osimertinib, reference compound] | significant swelling | significantly thickened | obvious erythema and rhagades | – | – | – | – | – | cytokine IL-1β in skin tissues of hind limb toes (immunohistochemistry) ([1]; osimertinib oral for 14 days): significantly increased
NC(=O)[C@H]1CCCc2c1[nH]c1ccc(Cl)cc21 [Compound 2b, (S)-6-chloro-2,3,4,9-tetrahydro-1H-carbazole-1-carboxamide] | – | – | – | significantly decrease | significantly decrease | effectively alleviate | effectively alleviate | significantly inhibit | m6A inhibition activity (THP-1 cells; 400 nM): comparable to that of the m6A methylase inhibitor UZH2 at a concentration of 5 μM
NC(=O)C1c2[nH]c3ccc(Cl)cc3c2C2CCC1C2 [Compound 5a, (S)-2-chloro-5,6,7,8,9,10-hexahydro-7,10-methanocyclohepta[b]indole-6-carboxamide] | – | – | – | – | – | – | – | significantly inhibit | –

From patent US20260226006A1, “INDOLE COMPOUND, PREPARATION METHOD THEREFOR AND USE THEREOF” (SUZHOU MERNA THERAPEUTICS CO. LTD, priority 2023, published 2026)
